From ChEMBL document CHEMBL4020767, “Structural insight into the active site of mushroom tyrosinase using phenylbenzoic acid derivatives” (Bioorg Med Chem Lett, 2017) come the findings set out here.

For this test, the target named is Mushroom tyrosinase (Agaricus bisporus, UniProt O42713+Q00024+C7FF04+C7FF05). The experiment in a line: Inhibition of mushroom tyrosinase […] measured at 60 secs interval for 25 times.

As to `COc1ccc(-c2ccc(C(=O)O)cc2)cc1`, the IC50 (commonly the concentration needed to halve the response being measured) stood at 15.3 µM. The same measure for `O=C(O)c1ccccc1-c1ccccc1`: over 100 µM; for `O=C(O)c1cccc(-c2ccc(O)cc2)c1`: 10.59 µM; for `COc1ccc(-c2cccc(C(=O)O)c2)cc1`: 15.3 µM. Next, `COc1ccc(-c2ccccc2C(=O)O)cc1`: over 100 µM. As for `O=C(O)c1ccc(-c2ccccc2)cc1`, the IC50 was 63.24 µM. This counts as double-digit micromolar. Turning to `O=C(O)c1ccc(-c2ccc(O)cc2)cc1`, the IC50 came to 14.7 µM. This IC50 lies about 4.3-fold lower than the previous one. `O=C(O)c1ccccc1-c1ccc(O)cc1` gave an IC50 of 100.18 µM. Compared with the last molecule, the IC50 is about 6.8-fold higher. Next, `O=C(O)c1cccc(-c2ccccc2)c1`: 6.97 µM.
